{"source": "paper PMC7994892", "about": "“The M. tuberculosis Rv1523 Methyltransferase Promotes Drug Resistance Through Methylation-Mediated Cell Wall Remodeling and Modulates Macrophages Immune Responses” (Frontiers in Cellular and Infection Microbiology, 2021)", "biological_target": "Rv1523 MTase (Mycobacterium tuberculosis, UniProt Q50584)", "sequence (Q50584 entry or part of it)": "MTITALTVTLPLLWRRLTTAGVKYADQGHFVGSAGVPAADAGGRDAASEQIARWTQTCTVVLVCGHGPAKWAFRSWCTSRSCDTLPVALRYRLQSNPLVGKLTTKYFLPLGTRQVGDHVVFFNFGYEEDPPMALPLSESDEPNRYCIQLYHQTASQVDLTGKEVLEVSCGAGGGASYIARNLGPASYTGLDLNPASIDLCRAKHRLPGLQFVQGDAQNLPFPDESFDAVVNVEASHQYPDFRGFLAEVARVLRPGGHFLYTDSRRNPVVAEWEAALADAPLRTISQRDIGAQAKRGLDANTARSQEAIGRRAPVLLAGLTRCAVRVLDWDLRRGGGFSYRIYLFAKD", "data": [{"molecule": "C[S+](CC[C@H](N)C(=O)O)C[C@H]1O[C@@H](n2cnc3c(N)ncnc32)[C@H](O)[C@@H]1O", "note": "(stereo partly shown) [S-adenosyl methionine]", "values": [{"measurement": "coupled colorimetric SAM methyltransferase assay, 510 nm", "value": "Rv1523 MTase was able to transfer methyl group from SAM to the cell wall component"}]}]}
